Test results as given in patent US20150299648A1, “IMPROVED CULTIVATION MEDIA AND PROCESS FOR IMPROVED PROTEIN PRODUCTION BY PICHIA STRAINS” (priority 2012, published 2015).

Key:
[1] = Osmolality of sugar and sugar alcohol solutions (osmometer); format: physicochemical; details: 500 mM in water
Method: The sugar and sugar alcohol solutions used as osmoprotectant supplements were prepared at 500 mM in water and their osmolalities were measured using Osmometer (Multi-somotte, Model 2430, Precision Systems Inc, MA, USA). The osmolality of solution was directly proportional to the concentration of component in solution. For instance there was a linear relationship between sorbitol concentration (mM) and osmolality of the solution (mOsm/kg) as shown in FIG. 1A. The osmolalities of maltitol, sorbitol, glycerol, and glucose at 500 mM in water were 590±4, 544±3, 541±3, and 568±0 mOsm/kg respectively (FIG. 1B). The osmolaties of sorbose, mellibiose, ribose, quinic acid and myo-inositol at 500 Mm in water were (480±5), (500±5), (470±5), (480±5) AND (510±10), respectively.

[2] = system: P. pastoris strain (YGLY27893) which produces an antibody Fc-fragment; assay: Effect of maltitol with or without sorbitol on cell robustness; format: cell-based, Pichia pastoris; details: BSGY medium with maltitol 50 g/L
Method: Using a P. pastoris strain (YGLY27893) which produces an antibody Fc-fragment, the osmoprotective effect of combining sorbitol and maltitol was tested as follows: sorbitol(−) maltitol(−); sorbito(+) maltitol(−); […] maltito(+). The concentrations of sorbitol and maltitol were 18 g/L and 50 g/L respectivetly. (Note: Sorbitol(+) maltito(−) is identical to BSGY medium).
The cell growth was expressed as [Cell (t)]/[Cell (0)]×100(%), here, [Cell (t)] is the wet cell weight at t (h) of induction and [Cell (0)] is the wet cell weight at 0 (h) of induction, because the cell density at the beginning of induction in each case was different due to absence or presence of sorbitol as a fermentable sugar. The cell was heavily lysed around 80 h of induction in BSGY medium without maltitol, whereas the cell was continuously grown for 150 h of induction in BSGY medium with maltitol (FIG. 4). I re-draw the FIG. 4 as shown in the last page (p 47 after FIG. 5).

[3] = system: P. pastrois strain yGLY21058; assay: Fermentability of sugars or sugar alcohols on M agar plate; format: cell-based, Pichia pastoris; details: 6 days at 30° C.
Method: The 1 mL of RCB (Research Cell Bank in 20% of glycerol) for P. pastrois strain yGLY21058 producing glycosylated insulin precursor (GIP) was inoculated in 200 mL of Seed medium (4% glycerol, 1% yeast extract, 2% soytone, 1.34% YNB without amino acids, 0.23% K2HPO4, 1.19% KH2PO4, 8 μg/L biotin) and cultivated for 48 h at 24° C. The cell pellet was harvested by centrifugation at 4,000 rpm for 10 min and re-suspended with PBS buffer (pH 7.4) to wash the cell twice. The 0.1 mL of cell suspension with wash buffer was transferred and spread onto the minimal agar plate containing each sugar or sugar alcohol (1% w/v), which is listed in Table 1.
YPD (1% yeast extract, 2% yeast peptone, and 1% glucose) agar plate was used for the positive control and a minimal agar plate without carbon sources (M) was used for negative control. Growth of Pichia pastoris on M agar plate containing single carbon source was categorized as no (−), slow (+), moderate (++), and fast (+++) colony formation for 6 days in Table 1.

Q: With `OC[C@@H](O)[C@@H](O[C@H]1O[C@H](CO)[C@@H](O)[C@H](O)[C@H]1O)[C@H](O)[C@@H](O)CO` [Maltitol, 4-O-α-glucopyranosyl-D-sorbitol] as the molecule, how does the Osmolality of solution [1] read?
A: 590±4 mOsm/kg

Q: What about the “Time of continuous cell growth in induction” value [2] of the same molecule?
A: 150 h

Q: What about the “Fermentability category from colony formation on the plate” value ([3]; minimal agar plate) of the same molecule?
A: strict non-fermentable substrates

Q: What about the “Growth on M agar” value ([3]; single carbon source 1% w/v) of the same molecule?
A: −
